Reference: ChEMBL document CHEMBL4311958, “Targeting multiple G-quadruplex-forming DNA sequences: Design, biophysical and biological evaluations of indolo-naphthyridine scaffold derivatives” (Eur J Med Chem, 2019)
Active and inactive are the calls of the source. The calls are words filed in the database; no cut-off is given here.

Assays:
Quadruplex DNA [1] = test: Stabilization of 5'-DABCYL/3'-FAM labeled HTS G-quadruplex oligonucleotide (unknown origin) assessed as change in melting temperature at 5 uM preincubated for 5 mins and measured after 5 mins by FRET assay; assay type: nucleic-acid assay
Quadruplex DNA [2] = test: Stabilization of 5'-DABCYL/3'-FAM labeled BCL2 G-quadruplex oligonucleotide (unknown origin) assessed as change in melting temperature at 5 uM preincubated for 5 mins and measured after 5 mins by FRET assay; assay type: nucleic-acid assay
dsDNA = test: Stabilization of 5'-DABCYL labeled double stranded DNA (unknown origin) assessed as change in melting temperature at 5 uM preincubated for 5 mins and measured after 5 mins by FRET assay; assay type: nucleic-acid assay
Quadruplex DNA [3] = test: Stabilization of 5'-DABCYL/3'-FAM labeled cKIT1 G-quadruplex oligonucleotide (unknown origin) assessed as change in melting temperature at 5 uM preincubated for 5 mins and measured after 5 mins by FRET assay; assay type: nucleic-acid assay
Quadruplex DNA [4] = test: Stabilization of 5'-DABCYL/3'-FAM labeled cMYC G-quadruplex oligonucleotide (unknown origin) assessed as change in melting temperature at 5 uM preincubated for 5 mins and measured after 5 mins by FRET assay; assay type: nucleic-acid assay
Quadruplex DNA [5] = test: Stabilization of 5'-DABCYL/3'-FAM labeled KRAS G-quadruplex oligonucleotide (unknown origin) assessed as change in melting temperature at 5 uM preincubated for 5 mins and measured after 5 mins by FRET assay; assay type: nucleic-acid assay
Quadruplex DNA [6] = test: Binding affinity to 5'-cy5 labeled cKIT1 G-quadruplex oligonucleotide (unknown origin) by microscale thermophoresis analysis; assay type: nucleic-acid assay
Quadruplex DNA [7] = test: Competitive binding affinity to 5'-DABCYL/3'-FAM labeled cKIT1 G-quadruplex oligonucleotide (unknown origin) at 5 uM preincubated for 5 mins and measured after 5 mins in presence of ds DNA by FRET assay; assay type: nucleic-acid assay
Quadruplex DNA [8] = test: Binding affinity to 5'-DABCYL/3'-FAM labeled cKIT1 G-quadruplex oligonucleotide (unknown origin) assessed as conformational change at test compound to DNA ratio of 4:1 measured for 10 mins by circular dichroism analysis; assay type: nucleic-acid assay
Quadruplex DNA [9] = test: Binding affinity to 5'-biotin-TEG labeled cKIT1 G-quadruplex oligonucleotide (unknown origin) by SPR analysis; assay type: nucleic-acid assay
HT-29 = test: Cytotoxicity against human HT-29 cells assessed as cell viability at 20 uM incubated for 48 hrs by trypan blue assay relative to control; assay type: functional; settings: HT-29, 48 h, read-out: Activity
A549 = test: Cytotoxicity against human A549 cells assessed as cell viability at 20 uM incubated for 48 hrs by trypan blue assay relative to control; assay type: functional; settings: A549, 48 h, read-out: Activity
Quadruplex DNA [10] = test: Binding affinity to 5'-DABCYL/3'-FAM labeled cKIT1 G-quadruplex oligonucleotide (unknown origin) assessed as melting temperature at test compound to DNA ratio of 4:1 measured for 10 mins by circular dichroism analysis; assay type: nucleic-acid assay
A2780 = test: Cytotoxicity against human A2780 cells assessed as cell viability at 20 uM incubated for 48 hrs by trypan blue assay relative to control; assay type: functional; settings: A2780, 48 h, read-out: Activity

ΔTm (Quadruplex DNA [1]) [°C]	ΔTm (Quadruplex DNA [2]) [°C]	deltaTm (dsDNA)	deltaTm (Quadruplex DNA [3])	ΔTm (Quadruplex DNA [4]) [°C]	deltaTm (Quadruplex DNA [5])	deltaTm (Quadruplex DNA [2])	deltaTm (Quadruplex DNA [4])	ΔTm (dsDNA) [°C]	ΔTm (Quadruplex DNA [3]) [°C]	Kd (Quadruplex DNA [6]) [nM]	Activity (Quadruplex DNA [7])	Activity (Quadruplex DNA [8])	Kd (Quadruplex DNA [9]) [nM]	Tm (Quadruplex DNA [10]) [°C]	ΔTm (Quadruplex DNA [5]) [°C]	Structure (SMILES)	viability at 20 µM (HT-29) [%]	viability at 20 µM (A549) [%]	viability at 20 µM (A2780) [%]
0.6	2.3	inactive	inactive	0.8	inactive											COc1ccc2c(c1OC)c(=O)n1c3ccccc3c3cc(C(=O)N4CCN(CCO)CC4)nc2c31			
4.5	3.4			4.9				0.1	6.3	300	inactive	Active	510	59.9	0.8	COc1ccc2c(c1OC)c(=O)n1c3ccc(OCC(=O)NCCCN4CCOCC4)cc3c3ccnc2c31	85	69	94

Further lines, the molecule ahead of its results:

Structure (SMILES)	ΔTm (Quadruplex DNA [1]) [°C]	ΔTm (Quadruplex DNA [2]) [°C]	deltaTm (dsDNA)	deltaTm (Quadruplex DNA [3])	ΔTm (Quadruplex DNA [4]) [°C]	deltaTm (Quadruplex DNA [5])	deltaTm (Quadruplex DNA [2])	deltaTm (Quadruplex DNA [4])	ΔTm (dsDNA) [°C]	ΔTm (Quadruplex DNA [3]) [°C]	Kd (Quadruplex DNA [6]) [nM]	Activity (Quadruplex DNA [7])	Activity (Quadruplex DNA [8])	Kd (Quadruplex DNA [9]) [nM]	Tm (Quadruplex DNA [10]) [°C]	ΔTm (Quadruplex DNA [5]) [°C]	viability at 20 µM (HT-29) [%]	viability at 20 µM (A549) [%]	viability at 20 µM (A2780) [%]
COc1ccc2c(c1OC)c(=O)n1c3ccccc3c3cc(C(=O)N4CCN(Cc5ccccc5)CC4)nc2c31	0.5		inactive	inactive		inactive	inactive	inactive											
CN(C)Cc1c(O)ccc2c1c1ccnc3c4ccccc4c(=O)n2c13	3.3	1.1			3.8	inactive			0.1	5									
C=C(C)Cc1c(OCC(=O)NCC2CCCN2CC)ccc2c1c1ccnc3c4ccccc4c(=O)n2c13 (centres undefined)	1.7	0	inactive		3.4	inactive				1.6									
CCN1CCN(C(=O)c2cc3c4ccccc4n4c(=O)c5ccccc5c(n2)c34)CC1	1.5	2.3		inactive	1.2	inactive			0.6										
